Laboratory results taken from patent US20230285372A1, “Pharmaceutical use of (E)-3-arylheterocyclylprop-2-enoic acid derivatives” (MEDCURIUS INC., priority 2020, published 2023).
Several values for one entry are separate records, joined by “and”; a condition that tells them apart may be missing. Identical values can stand only once.

What was measured:
NQO-1 = NQO-1 expression in HT-22 cytoplasm, Western Blot; type: cell-based, mouse; details: HT-22 cells, 1.25 μM, 24 hours, vs control group
Text: As a transcription factor, Nrf2 needs to enter the nucleus and combine with ARE sequence to play a role in transcriptional activation. Therefore, Nrf2 protein level in the nucleus is an important prerequisite for the activation of Nrf2 signaling pathway. NQO-1 and HO-1 are target genes regulated by Nrf2, and the increase of their protein levels is an important sign of activation of the Nrf2 signaling pathway.
HT-22 cells in logarithmic growth phase were selected, the culture medium was discarded, the cells were digested with 0.25% Trypsin containing EDTA, and cell suspension was made. Cell density was adjusted to 50000/ml with DMEM/F12 medium (containing 10% FBS and 1% double antibody) and it was inoculated to 6-well plate, with 2000 μL/well, the number of cells per well was 100, 000, and the cells were cultured in a cell incubator at 37° C. in an atmosphere containing 5% CO2 for 24 hours. Then, the medium of each well was replaced with new 1980 μL DMEM/F12 medium. […] After 24 hours, the cells were collected, nuclear protein and cytoplasmic protein were extracted, and the level of Nrf2 in the nucleus and the expression of NQO-1 and HO-1 in cytoplasm were detected by Western Blot.

[1] = system: MPTP-induced Parkinson's disease mouse; assay: Pole-climbing test, MPTP-induced Parkinson's disease mouse; type: in vivo; details: 40 days, vs model group
Experimental: (§1) Male C57 mouse were screened for their motor function by a mouse rod-rotating test, and unqualified ones were excluded from the test. […] MPTP was injected subcutaneously every 4 days in the model group and the drug administration group with a dosage of 25 mg/kg for 40 consecutive days. Each group of I-5 was administered once a day at 8:00 am and 8:00 pm (by intragastric administration), twice in total. […] The intragastric volume was 0.1 ml/10 g body weight, and the behavior test was started 40 days later. […] The storage time of the prepared liquid medicine was not more than 24 hours.
A climbing pole in the pole-climbing test was a rough wooden pole with a diameter of 2 cm and a length of 50 cm. The bottom of the wooden pole was located in the mouse home cage and was vertically oriented. When the mouse was placed on top of the wooden pole, it would naturally descend to the bottom of the wooden pole and reach the base of the pole. […] The mouse should have a pre-acclimation period of 2 days prior to the test, training five times a day. To the test day, the time required for the […] to reach the bottom (incubation period) was taken as an evaluation index to observe the effect of the tested compound on the motion ability of the mouse.

α-synuclein protein = α-synuclein protein level in midbrain, Western blot, MPTP mouse; type: in vivo; details: high dosage treatment group of I-5; vs model group, p<0.05
Text: (§2) The core pathological change of Parkinson's disease is the loss of dopaminergic neurons. Tyrosine hydroxylase (TH), the rate-limiting enzyme in dopamine synthesis, is the landmark protein of the dopaminergic neurons. Therefore, the decrease in its level indicates the loss of the dopaminergic neurons. A key protein for the occurrence and development of Parkinson's disease is α-synuclein protein, and the abnormal modification (hyperphosphorylation) of this protein can inhibit microtubule polymerization, enhance oxidative stress, and thus accelerate the death of the dopaminergic neurons.
Male C57 mouse were screened for their motor function by a mouse rod-rotating test, and unqualified ones were excluded from the test. […] MPTP was injected subcutaneously every 4 days in the model group and the drug administration group with a dosage of 25 mg/kg for 40 consecutive days. Each group of I-5 was administered once a day at 8:00 am and 8:00 pm (by intragastric administration), twice in total. […]
Tissues from all the animals were collected on the second day after the end of the behavioral experiment. […] The level of tyrosine hydroxylase (TH), a marker protein of dopaminergic neurons, was detected by immumohistochemistry, and α-synuclein protein level and phosphorylation level of the protein were detected by Western blot.

p-synuclein = assay: Phosphorylated α-synuclein (p-synuclein) level in midbrain, Western blot, MPTP mouse; type: in vivo; details: vs model group
Text: as §2, §1
Tissues from all the animals were collected on the second day after the end of the behavioral experiment. Hearts from six animals in each group were perfused and fixed with paraformaldehyde for pathological analysis of paraffin sections. Brain tissue of the remaining animals was separated on ice, and brain areas (midbrain) related to Parkinson's disease were collected. After being frozen with liquid nitrogen, they were stored in a refrigerator at −80° C. for protein analysis. The level of tyrosine hydroxylase (TH), a marker protein of dopaminergic neurons, was detected by immumohistochemistry, and α-synuclein protein level and phosphorylation level of the protein were detected by Western blot.

[2] = system: MPTP-induced Parkinson's disease mouse; assay: Model of MPTP-induced Parkinson's disease mouse, overall conclusion; type: in vivo; details: improves MPTP-induced dyskinesia and inhibits neurodegeneration; bid intragastric
Experimental: as §1

N#C/C=C/c1ccccn1 [Compound I-5]
protein level of NQO-1 (NQO-1): increased significantly
latency of mouse reaching the base of the pole ([1]; I-5 5 mg/kg bid intragastric, p<0.01): significantly shortened
latency of mouse reaching the base of the pole ([1]; I-5 10 mg/kg bid intragastric, p<0.0001): significantly shortened
latency of mouse reaching the base of the pole ([1]; I-5 20 mg/kg bid intragastric, p<0.0001): significantly shortened
α-synuclein protein level in the midbrain (α-synuclein protein): significantly higher than that of the model group
p-synuclein protein level in the midbrain (p-synuclein; I-5 10 mg/kg, p<0.01): significantly lower than that in the model group
p-synuclein protein level in the midbrain (p-synuclein; I-5 20 mg/kg, p<0.05): significantly lower than that in the model group
effective doses [2]: 10 mg/kg and 20 mg/kg
